The subject of one test is THP-1 cell line. Briefly: Pooled two-target microfluidic screen: Fura red fluorescence response of THP-1 cells. It is filed as cell-based. The conditions noted are these: pooled with CHO-M1 cells, microfluidic channel, blue excitation light, FIG. 6C-6D. Here is the method:
(§1) A THP-1 cell line was labeled with Fura red. Both cell lines were pooled and introduced into microfluidic device having the channel structure illustrated in FIG. 5. The cells were flowed through the main channel of the device past a detector that excited the cells with blue excitation light. Green fluorescence was analyzed from the Fluo-4 labeled CHO cells to measure their response to the test compounds. The measurement of the different fluorescence was accomplished simultaneously through the use of appropriate beam splitters and filters in the optical train of the detector. Similarly, red fluorescence was measured from the Fura-red labeled THP-1 cells to measure their response. […] Similarly, different concentrations of UTP were also contacted with the cells flowing through the channel and the results for each system were plotted (FIG. 6C-D).

Test [1] concerns CHO cell line expressing the M1 muscarinic receptor. The test can be described thus: Pooled two-target microfluidic screen: Fluo-4 green fluorescence response of CHO-M1 cells. Format: cell-based. Particulars: pooled with THP-1 cells, microfluidic channel, blue excitation light, FIG. 6. Here is the method:
as §1

From patent US20010036626A1, “Screening assay methods and systems using target pooling” (priority 2000, published 2001) come the findings set out here.

Consider `O=c1ccn([C@@H]2O[C@H](COP(=O)(O)OP(=O)(O)OP(=O)(O)O)[C@@H](O)[C@H]2O)c(=O)[nH]1` [UTP], for which, in the test with THP-1 cell line, the “red fluorescence response of Fura-red labeled THP-1 cells to different concentrations of test compound” value is reported as “dose dependent response”. For the same molecule, the “green fluorescence response of Fluo-4 labeled CHO-M1 cells to different concentrations of test compound” value in test [1] was “dose dependent response”.
